Test results from ChEMBL document CHEMBL1201862, “PubChem BioAssay data set” (2004).
The source made the active and inactive calls.

Assays:
[1] = blockers of CRF-binding protein–CRF-R2 complex – cell-based, uHTS hits, 384-well, dose response (AID 651639); type: functional, Homo sapiens; conditions: read-out: IC50_Mean
[2] = molecular target: T1, Corticotropin-releasing factor receptor 2/Corticotropin-releasing factor-binding protein (Homo sapiens, UniProt P24387+Q13324); test: activators of CRF receptor 2 with binding protein – uHTS hits, confirmation (AID 602473); type: functional; conditions: read-out: EC50_Mean
T1 sequence (Q13324 whole entry): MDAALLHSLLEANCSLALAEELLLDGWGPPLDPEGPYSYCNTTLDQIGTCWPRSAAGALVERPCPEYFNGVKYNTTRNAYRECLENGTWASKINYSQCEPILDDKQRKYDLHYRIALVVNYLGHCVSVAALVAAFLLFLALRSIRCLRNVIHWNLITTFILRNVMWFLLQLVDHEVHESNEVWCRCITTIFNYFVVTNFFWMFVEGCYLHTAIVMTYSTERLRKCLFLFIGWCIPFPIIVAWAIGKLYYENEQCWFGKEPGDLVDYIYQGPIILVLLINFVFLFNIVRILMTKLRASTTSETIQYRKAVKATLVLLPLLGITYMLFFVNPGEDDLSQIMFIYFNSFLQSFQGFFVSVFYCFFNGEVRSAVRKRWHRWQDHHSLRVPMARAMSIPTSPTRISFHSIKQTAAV
T1 sequence (P24387 whole entry): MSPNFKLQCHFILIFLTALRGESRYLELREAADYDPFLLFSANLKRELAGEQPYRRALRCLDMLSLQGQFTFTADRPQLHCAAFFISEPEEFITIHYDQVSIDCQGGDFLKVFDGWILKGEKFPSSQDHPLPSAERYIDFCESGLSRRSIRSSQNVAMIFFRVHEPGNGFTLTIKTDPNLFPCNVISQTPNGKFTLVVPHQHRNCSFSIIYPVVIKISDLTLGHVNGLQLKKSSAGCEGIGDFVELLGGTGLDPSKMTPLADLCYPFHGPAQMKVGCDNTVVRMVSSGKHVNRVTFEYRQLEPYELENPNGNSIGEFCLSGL

[3] = molecular target: T1, Corticotropin-releasing factor receptor 2/Corticotropin-releasing factor-binding protein; test: Dose Response confirmation of uHTS hits for small molecule antagonists of the CRF-binding protein and CRF-R2 receptor complex.; type: functional; conditions: read-out: IC50_Mean
[4] = viability of PTEN-deleted HCT116 cells – cell-based, HCT116 PTEN knockout, dose response (AID 1047); type: functional;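 further: HCT116 colon tumor cells with PTEN knocked out; cells exposed to compound for 60 hours before readout; potency for loss of cell viability measured by luminescence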
[5] = Luminescence Cell-Based Dose Retest to Confirm Inhibitors of Cancer Stem Cells. [Related pubchem assays (depositor defined):AID2717, AID2721]; type: functional; conditions: Homo sapiens
[6] = viability of HCT116 lacking mutant beta-catenin – cell-based, human colon tumor, dose response (AID 1045); type: functional;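 further: HCT116 colon tumor cells with beta catenin knocked out; cells exposed to compound for 60 hours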
[7] = A Cell Based Secondary Assay To Explore Cytotoxicity of Compounds that Sensitize Mycobacterium Tuberculosis to Beta-Lactam Antibiotics.; type: functional
Caspase-3 = molecular target: T2, Caspase-3 (Homo sapiens, UniProt P42574); type: functional;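 further: Dose-response selectivity test against caspase-3 for candidate inhibitors of sentrin-specific proteases (SENPs)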
T2 sequence (P42574 whole entry): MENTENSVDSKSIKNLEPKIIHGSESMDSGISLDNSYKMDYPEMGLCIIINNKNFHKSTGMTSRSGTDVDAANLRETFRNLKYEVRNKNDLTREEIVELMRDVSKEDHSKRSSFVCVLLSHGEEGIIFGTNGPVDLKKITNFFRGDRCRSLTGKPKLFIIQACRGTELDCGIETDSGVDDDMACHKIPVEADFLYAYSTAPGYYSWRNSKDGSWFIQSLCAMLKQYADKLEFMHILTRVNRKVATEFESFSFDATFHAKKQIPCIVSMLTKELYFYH

[8] = molecular target: T3, Sentrin-specific protease 6 (Homo sapiens, UniProt Q9GZR1); type: functional;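 further: Luminescence-based dose-response confirmatory assay of SENP6 inhibition, following up an ultra-high-throughput screen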
T3 sequence (Q9GZR1 whole entry): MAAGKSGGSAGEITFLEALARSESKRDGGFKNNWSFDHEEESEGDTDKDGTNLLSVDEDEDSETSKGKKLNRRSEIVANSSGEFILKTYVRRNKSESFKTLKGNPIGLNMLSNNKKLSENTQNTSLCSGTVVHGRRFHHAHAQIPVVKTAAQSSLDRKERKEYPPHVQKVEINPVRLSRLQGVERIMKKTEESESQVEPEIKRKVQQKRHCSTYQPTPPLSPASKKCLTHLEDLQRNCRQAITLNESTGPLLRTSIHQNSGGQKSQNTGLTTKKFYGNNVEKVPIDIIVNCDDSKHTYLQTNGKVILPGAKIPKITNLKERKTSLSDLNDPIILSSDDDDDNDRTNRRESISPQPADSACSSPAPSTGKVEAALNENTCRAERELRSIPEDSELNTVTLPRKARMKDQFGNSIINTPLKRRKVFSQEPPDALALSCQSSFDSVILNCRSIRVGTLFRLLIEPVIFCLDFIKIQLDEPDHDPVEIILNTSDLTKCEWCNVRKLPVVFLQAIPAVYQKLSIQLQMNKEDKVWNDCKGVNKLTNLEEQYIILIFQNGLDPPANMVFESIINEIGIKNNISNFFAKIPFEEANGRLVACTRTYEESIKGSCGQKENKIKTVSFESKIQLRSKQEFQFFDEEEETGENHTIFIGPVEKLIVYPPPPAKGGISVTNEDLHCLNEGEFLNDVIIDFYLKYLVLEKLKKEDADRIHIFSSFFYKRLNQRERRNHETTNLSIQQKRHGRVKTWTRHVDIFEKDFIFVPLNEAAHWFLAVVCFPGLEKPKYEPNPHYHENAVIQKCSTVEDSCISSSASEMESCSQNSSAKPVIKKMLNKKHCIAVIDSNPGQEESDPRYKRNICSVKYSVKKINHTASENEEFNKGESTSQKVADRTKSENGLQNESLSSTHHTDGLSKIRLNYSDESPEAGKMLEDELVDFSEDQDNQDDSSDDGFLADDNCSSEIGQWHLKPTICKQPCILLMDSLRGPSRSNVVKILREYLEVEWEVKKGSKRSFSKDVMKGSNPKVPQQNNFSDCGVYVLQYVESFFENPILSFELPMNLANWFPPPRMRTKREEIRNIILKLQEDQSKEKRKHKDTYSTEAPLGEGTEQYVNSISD

[9] = molecular target: T4, Sentrin-specific protease 8 (Homo sapiens, UniProt Q96LD8); type: functional;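 further: luminescence read-out of SENP8 inhibition, dose-response confirmation following an ultra-high-throughput screen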
T4 sequence (Q96LD8 whole entry): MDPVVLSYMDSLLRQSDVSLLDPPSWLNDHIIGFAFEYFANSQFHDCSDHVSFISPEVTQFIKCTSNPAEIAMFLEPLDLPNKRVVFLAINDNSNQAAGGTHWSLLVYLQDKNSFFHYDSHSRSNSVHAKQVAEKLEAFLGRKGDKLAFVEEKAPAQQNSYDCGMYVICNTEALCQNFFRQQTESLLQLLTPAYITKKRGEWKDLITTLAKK

[10] = molecular target: T5, Sentrin-specific protease 7 (Homo sapiens, UniProt Q9BQF6); type: functional;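 further: Luminescence-based dose-response confirmation of ultra-high-throughput screening hits, measuring inhibition of SENP7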
T5 sequence (Q9BQF6 whole entry): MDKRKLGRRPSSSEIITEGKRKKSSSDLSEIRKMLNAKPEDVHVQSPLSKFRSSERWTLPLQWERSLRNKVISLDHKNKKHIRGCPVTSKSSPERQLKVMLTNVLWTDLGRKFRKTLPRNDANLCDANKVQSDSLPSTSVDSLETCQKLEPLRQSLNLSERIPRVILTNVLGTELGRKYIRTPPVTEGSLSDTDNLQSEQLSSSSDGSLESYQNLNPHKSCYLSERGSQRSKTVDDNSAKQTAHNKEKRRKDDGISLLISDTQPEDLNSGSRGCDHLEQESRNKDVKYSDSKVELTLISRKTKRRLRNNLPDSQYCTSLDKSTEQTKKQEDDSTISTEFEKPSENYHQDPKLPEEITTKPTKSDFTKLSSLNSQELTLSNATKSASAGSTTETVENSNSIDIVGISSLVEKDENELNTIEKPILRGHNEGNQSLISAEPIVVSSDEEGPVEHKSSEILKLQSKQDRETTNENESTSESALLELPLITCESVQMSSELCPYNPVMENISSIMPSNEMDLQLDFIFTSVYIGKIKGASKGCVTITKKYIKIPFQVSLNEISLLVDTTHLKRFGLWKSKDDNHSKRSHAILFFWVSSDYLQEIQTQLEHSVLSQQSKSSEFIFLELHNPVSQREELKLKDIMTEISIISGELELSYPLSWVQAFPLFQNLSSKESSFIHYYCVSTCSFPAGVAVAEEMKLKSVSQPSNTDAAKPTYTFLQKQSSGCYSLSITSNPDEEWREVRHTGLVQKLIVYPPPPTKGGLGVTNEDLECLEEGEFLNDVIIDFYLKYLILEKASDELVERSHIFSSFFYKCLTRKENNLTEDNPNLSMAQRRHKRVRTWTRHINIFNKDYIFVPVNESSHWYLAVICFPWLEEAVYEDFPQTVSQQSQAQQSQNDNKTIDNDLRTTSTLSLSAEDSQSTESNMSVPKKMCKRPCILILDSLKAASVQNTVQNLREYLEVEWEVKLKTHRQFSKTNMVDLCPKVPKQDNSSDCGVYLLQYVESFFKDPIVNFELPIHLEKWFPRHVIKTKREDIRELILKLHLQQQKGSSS

Protein skinhead-1 = molecular target: T6, Protein skinhead-1 (Caenorhabditis elegans, UniProt P34707); type: functional
T6 sequence (P34707 whole entry): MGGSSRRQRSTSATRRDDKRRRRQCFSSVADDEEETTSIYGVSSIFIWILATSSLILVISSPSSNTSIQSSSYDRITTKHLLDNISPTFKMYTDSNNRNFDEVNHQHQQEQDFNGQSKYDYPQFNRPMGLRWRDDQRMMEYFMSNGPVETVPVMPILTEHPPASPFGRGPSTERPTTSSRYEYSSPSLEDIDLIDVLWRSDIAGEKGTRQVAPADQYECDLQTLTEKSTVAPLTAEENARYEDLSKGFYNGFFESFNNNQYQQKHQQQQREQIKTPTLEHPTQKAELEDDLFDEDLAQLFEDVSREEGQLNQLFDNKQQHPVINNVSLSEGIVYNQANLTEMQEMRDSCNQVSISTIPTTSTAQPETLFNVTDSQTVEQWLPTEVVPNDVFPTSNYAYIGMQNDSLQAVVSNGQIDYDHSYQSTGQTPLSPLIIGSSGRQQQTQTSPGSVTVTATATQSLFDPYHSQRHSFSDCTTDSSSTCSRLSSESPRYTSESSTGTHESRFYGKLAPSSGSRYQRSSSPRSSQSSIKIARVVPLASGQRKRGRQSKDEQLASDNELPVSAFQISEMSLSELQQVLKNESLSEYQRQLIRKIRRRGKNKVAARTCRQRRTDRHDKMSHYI

[11] = Trypanosoma cruzi growth suppression in host cells – NIH3T3 host cells, beta-gal luminescence, confirmation (AID 2044); type: functional, cell-based;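 further: intracellular parasites grown in NIH/3T3 mouse fibroblasts as host cells; luminescent beta-galactosidase reporter signal from transgenic T. cruzi replicating inside host cells; inhibitors lower the luminescence signal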
[12] = NIH-3T3 fibroblast cytotoxicity, dose response, cytotoxicity control, cell-based, fluorescence, Alamar Blue, secondary assay (AID 2327); type: functional;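 further: NIH-3T3 mouse fibroblasts cultured with fluconazole at 8 µg/mL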
[13] = NIH3T3 cell viability loss – ATP luminescence, mouse fibroblasts, counter-screen, dose response (AID 2010); type: functional, cell-based;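 further: cells exposed to compound for about 90 hours before reading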
[14] = fluconazole-exposed Candida albicans growth modulators – fluorescence, retest, confirmation (AID 2467); type: functional, cell-based
[15] = alpha-synuclein stem-loop luciferase translation blockers – H4 neuroglioma cells, luminescence, confirmation (AID 1988); type: functional, cell-based
[16] = Luminescence Cell-Based Dose Response HTS to Identify Inhibitors of 5'UTR Stem-Loop Driven Prion Protein mRNA Translation in H4 Neuroglioblastoma Cells. [Related pubchem assays: 1827 (Project Summary), 1813 (Primary HTS)]; type: functional
[17] = luciferase reporter signal suppression in cells – H4 neuroglioma cells, luminescence, dose response (AID 1990); type: functional, cell-based
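Wherever AC50 is given: cells exposed to compound for roughly 70 hours or longer before luminescence read.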

COc1ccc([N+](=O)[O-])cc1NC(=O)c1ccccc1SC
IC50 [1]: 1.79 µM (active)
EC50 [2]: > 53 µM (inactive)
IC50 [3]: 23 µM (active)

CCN1CCN(c2cc(-c3ccccc3)nc3cc(-c4cccc(F)c4)nn23)CC1
EC50 [4]: 13.8 µM (active)
AC50 [5]: 5.42 µM (active)
EC50 [6]: 11.1 µM (active)

COc1ccc2oc(=N)c(C(=O)Nc3ccccc3)cc2c1
CC50 [7]: > 40 µM (active)

Cc1ccc(-c2nc3sc4c(c3c(=O)n2N)CCCC4)cc1
IC50 (Caspase-3): 12.7 µM (active)
IC50 [8]: 18.2 µM (active)
IC50 [9]: > 100 µM (inactive)
IC50 [10]: 5.25 µM (active)

CN(C)C1=NP(N(C)C)(N(C)C)=NC(c2ccccc2)=N1
IC50 [1]: > 20 µM (inactive)
EC50 [2]: > 53 µM (inactive)
IC50 [3]: < 0.368 µM (active)

Nc1ccccc1Oc1c(F)c(F)c(Oc2ccccc2N)c(F)c1F
IC50 [1]: > 20 µM (inactive)
EC50 [2]: > 53 µM (inactive)
IC50 [3]: 4.08 µM (active)

O=C(Nc1cccc(S(=O)(=O)N2CCCCC2)c1)Nc1ccc(Cl)cc1Cl
EC50 [4]: 8.66 µM (active)
EC50 [6]: 8.76 µM (active)

O=C(CSc1ncnc2ccccc12)c1cccs1
IC50 (Caspase-3): 37.4 µM (active)
IC50 [8]: 23.9 µM (active)
IC50 [9]: 17.5 µM (active)
IC50 [10]: 4.7 µM (active)

N#Cc1cccc(NC(=O)Nc2cccs2)c1
IC50 [1]: > 20 µM (inactive)
EC50 [2]: > 53 µM (inactive)
IC50 [3]: < 0.368 µM (active)

COCCn1c(=O)[nH]c(=O)c2c1nc(-c1ccc(-c3ccc(Cl)cc3[N+](=O)[O-])o1)n2Cc1ccccc1
EC50 [4]: 17.3 µM (active)
EC50 [6]: 19.4 µM (active)

COC(=O)CNC(c1ccccc1Cl)c1cc(Br)ccc1NC(=O)CCN1CCOCC1 (stereo not drawn)
IC50 (Protein skinhead-1): > 100 µM (inactive)
CC50 [7]: > 40 µM (active)

COc1cc(NC(=O)c2cccc(Br)c2)nc(OC)n1
IC50 (Caspase-3): 20.5 µM (active)
IC50 [8]: 31 µM (active)
IC50 [9]: 35.7 µM (active)
IC50 [10]: 8.86 µM (active)

CCCOc1ccc(C(=O)CCN2CCCCC2)cc1
CC50 [7]: > 40 µM (active)

CCOC(=O)/C=C/c1ccc2oc3ccccc3c(=O)c2c1
IC50 (Caspase-3): 12.2 µM (active)
IC50 [8]: 16.6 µM (active)
IC50 [9]: 42.7 µM (active)
IC50 [10]: 3.46 µM (active)

Cc1cccc(C(=O)O/N=C/c2c(N3CCOCC3)n(C)c3ccccc23)c1
EC50 [11]: 3.22 µM (active)
EC50 [12]: > 150 µM (inactive)
EC50 [13]: 8.96 µM (active)
EC50 [4]: 2.47 µM (active)
EC50 [14]: 0.729 µM (active)
EC50 [6]: 2.35 µM (active)
EC50 [15]: 9.98 µM (active)
EC50 [16]: 10.8 µM (active)
EC50 [17]: > 120 µM (not active)
